Assays:
primary BMMs = assay: CCK-8 cytotoxicity assay on BMMs; assay type: cell-based, mouse
Protocol: Primary BMMs were obtained from whole bone marrow of male 6-week-old C57BL/6 mice. In brief, cells were extracted from the tibiae and femurs bone marrow and suspended in complete α-MEM (α-MEM supplemented with 30 ng/ml M-CSF, 10% FBS, and 1% penicillin/streptomycin). Then, the cell cultures were kept in a humid environment at 37 °C with 5% CO2 until they reached 90% confluence. The cytotoxic effects of DZNep on BMMs were then determined by the CCK-8 kit. Specifically, the BMMs were seeded into 96-well plates in triplicate at the density of 8 × 10^3 cells/well in presence of 100μL complete α-MEM for 24 h. After that, the cells were treated with increasing concentration of DZNep (control, 3.125, 6.25, 12.5, 25, 50, 100, 200 nM) for 24, 48, and 96 h. After treatment, 100μL medium contained 10% CCK-8 buffer was added to the wells and incubated in the dark at 37 °C for 2 h. The absorbance was then detected at 450 nm wavelength (650 nm reference) on a microplate reader.

BMMs = assay: RANKL-induced osteoclast differentiation, TRAP staining; assay type: cell-based, mouse
Protocol: To evaluate the role of DZNep on osteoclastogenesis, BMMs were seeded into, in triplicate, a 96-well plate at the density of 8 × 10^3 cells/well with complete α-MEM for one day. Afterward, the culture medium was replaced by the complete α-MEM containing different concentrations of DZNep (control, 3.125, 6.25, 12.5, and 25 nM) and RANKL (50 ng/ml) to stimulate osteoclast differentiation. Cells untreated with DZNep were included as the control group. Moreover, the BMMs treated with or without DZNep for various days were also analyzed. For EZH2 gene knockdown studies, the cells were transfected with virus constructed of different EZH2 short hairpin RNA (shRNA) and negative control shRNA by mixed with polybrene (final concentration of 10ug/ml) for 48 h. The transfection mixture was then replaced by complete α-MEM added with puromycin for 24 h, and BMMs were then seeded into a 96-well plate at the density of 1 × 10^4 cells/well with complete α-MEM. The culture medium was then replaced every 2 days until the matured osteoclasts could be observed in the plate. For Foxc1 inhibition experiment, the cells were separately transfected with negative control siRNA, negative control siRNA with DZNep, and Foxc1 small interfering RNA (siRNA) with DZNep and by mixed with transfection reagent and osteoclast culture medium. The transfection mixture was then replaced every 2 days until the matured osteoclasts could be observed in the plate. The plate was then washed by PBS 1 times and fixed with 4% paraformaldehyde for 15 min. TRAP staining was performed immediately without light at 37 °C for 30 min. An optical microscope (Olympus, Tokyo, Japan) was used to image the photographs, and the TRAP-positive cells with more than three nuclei were considered osteoclasts and were quantified the area and number using the ImageJ software (NIH, Bethesda, MD, USA).

bone defect mice = assay: Tibia cortical and trabecular bone defect mice model; assay type: in vivo, mouse
Description: The tibia cortical and trabecular bone defect mice model was established to determine the bone healing effect of DZNep in vivo. Firstly, all mice (twelve 8-week-old C57/BL6 male mice (approximate weight 20 ± 2 g)) were anesthetized by 2% isoflurane, the right tibia was exposed, and muscles were dissociated. Then a pilot hole was first made with a burr drill point in the proximal tibia, but away from the growth plate to some extent. Then the hole was enlarged with a 1 mm […]. Afterward, the mice were average divided into two groups: (1) DZNep group (injection with 100 μg/kg DZNep); (2) Sham group (injection with 1 × PBS). Two days after operation, 1 × PBS for sham group and DZNep for treatment group were intraperitoneally injected every two days during next two week. All mice were finally euthanized after experiment, and whole tibia bones were separated. After fixed in 4% paraformaldehyde for 24 h, the 75% ethanol was then used to soak the specimens for further histological and radiographic analysis. High-resolution micro-CT (μCT-100, SCANCO Medical AG, Switzerland) was used to perform the micro-computed tomography (CT) scanning. […] For analysis bone mass of defect section, a region of defect section trabecular bone was contoured, starting from the first defect section level away from proximal end of the […] growth plate. Femoral trabecular bone was thresholded at 211 per mille. The indicators of bone microstructure (bone volume/tissue volume (BV/TV), trabecular thickness (Tb.Th), trabecula number (Tb.N), trabecula separation (Tb.Sp), and bone surface/ bone volume (BS/BV)) were measured by software (Version: 6.5-3, SCANCO Medical AG, Switzerland) through evaluating and analyzing the three-dimensional region of interest (ROI). After fixing in 4% paraformaldehyde for 48 h, the 10% EDTA was used to decalcify the fixed tibias for 21 days. Then the tissues were processed by dehydrating in different concentrations of ethanol, infiltrating with xylene, and embedding with paraffin. Hematoxylin and eosin (H&E) and TRAP staining were then performed on these prepared histological sections. As for immunofluorescent staining, slices were processed in a sequence of deparaffinization, hydration, antigen retrieval, permeabilization, blocking, primary antibody incubation (OCN, USA, Affinity; dilution 1:100), secondary antibody incubation, and nuclear staining finally. Immunohistochemical (IHC) staining was accomplished with antibodies against OCN (USA, Affinity; dilution 1:100). The specimens were observed and photographed under the high-quality microscope (Leica DM4000B). Each sample's number of osteoclasts and TRAP-positive multinucleated osteoclasts per field (Oc.S/BS) were calculated.

[1] = RANKL, M-CSF, DZNep ≤25 nM, 5 days, vs control
[2] = 100 μg/kg i.p. every two days, two weeks

## Nc1nccc2c1ncn2C1C=C(CO)C(O)C1O (centres unmarked) [DZNep, 3-Deazaneplanocin]
Primary BMMs; 25 nM, CCK-8 at 24, 48, and 96 h
  cytotoxicity on primary BMMs: no cytotoxicity was found
Primary BMMs; Mus musculus, at 96 h, CCK-8, read-out: inhibitory concentration (IC50) against BMMs
  IC50: 326 nM
BMMs; 25 nM, day 3–5, vs control
  number of osteoclasts, treatment at specific time points: increased the number of osteoclasts at the middle stage
BMMs; [1]
  number of mature osteoclast nuclei: increased in a dose-dependent manner significantly
  number of mature osteoclasts: increased the number of mature osteoclasts in a DZNep dose-dependent manner
Bone defect mice; 100 μg/kg i.p.
  osteocalcin (OCN) expression in vivo: increased
Bone defect mice; [2]
  BV/TV (micro-CT): prominently increased
  trabecular thickness (Tb.th) (micro-CT): prominently increased
Bone defect mice; 100 μg/kg i.p. every two days, two weeks, vs control
  bone mineral density (X-ray): more bone mineral density
Bone defect mice; 100 μg/kg i.p., vs control
  bone repair (H&E-stained sections): more significant bone repair
Bone defect mice; 100 μg/kg i.p., vs vehicle-treated group
  number of TRAP-positive multinucleated osteoclasts in vivo: more number of TRAP-positive multinucleated osteoclasts

Source: paper PMC8686256, “DZNep promotes mouse bone defect healing via enhancing both osteogenesis and osteoclastogenesis” (Stem Cell Research & Therapy, 2021)
